Reference: publication PMC1082716, “Blockade of chemokine-induced signalling inhibits CCR5-dependent HIV infection in vitro without blocking gp120/CCR5 interaction” (Retrovirology, 2005)

Assays:
[1] = system: SDF-1α induced chemotaxis; assay: SDF-1α induced chemotaxis (ChemoTx transwell); assay type: cell-based; details: 100 ng/ml SDF1α; various concentrations of inhibitor in both compartments; 5 × 10^4 cells per well; 2 h, 37°C; MTT; triplicate
Method: Figure 2 Effect of Peptide 3 on gp120:V3 loop peptide binding to cells. (a) The binding of 100 μM N-terminal biotinylated gp120:V3(IIIb) to THP-1 cells was measured in the presence of various concentrations of peptide 3. […] (b) Chemotaxis in response to 100 ng/ml SDF1α was measured in the presence of various concentrations of peptide 3. […] (e) As for (a) except that the effect of Peptide 3 on the binding of gp120:V3(BaL) to THP-1 cells was determined. (f) As for (b) except that the effect of Peptide 3 on chemotaxis induced by 25 ng/ml MIP1α was determined. All binding reactions were performed with 10^6 cells in 100 μl of binding medium at 4°C. Chemotaxis assays were performed with 5 × 10^4 cells per well. Values are mean ± SEM of triplicate determinations.
Chemotaxis experiments were performed essentially as previously described, using the ChemoTx disposable 96-well transwell migration plates, with PVP-free membrane (6 μm pore size). Chemoattractant (lower compartment) and cells upper compartment) were suspended in Gey's Balanced salt solution + 1 mg/ml BSA. […] Migration was allowed to proceed for 2 hours at 37°C. […] Each condition was determined in triplicate, and the number of cells migrating in the absence of chemoattractant was subtracted to determine the chemokine-dependent chemotaxis which was reported.

[2] = biological target: T1, CXCR4 (Homo sapiens, UniProt P61073); assay: Specific binding of biotinylated gp120:V3(IIIb) peptide to Jurkat cells; details: 100 μM biotinylated gp120:V3(IIIb); various concentrations of inhibitor; 10^6 cells in 100 μl, 4°C; triplicate
T1 construct: CXCR4, which is expressed on both THP-1 and Jurkat cells, but at higher levels on the T-cell line; endogenous in cells; host or cells: Jurkat T-cells (whole cells, 10^6 per well, 4°C)
T1 sequence (P61073 whole entry): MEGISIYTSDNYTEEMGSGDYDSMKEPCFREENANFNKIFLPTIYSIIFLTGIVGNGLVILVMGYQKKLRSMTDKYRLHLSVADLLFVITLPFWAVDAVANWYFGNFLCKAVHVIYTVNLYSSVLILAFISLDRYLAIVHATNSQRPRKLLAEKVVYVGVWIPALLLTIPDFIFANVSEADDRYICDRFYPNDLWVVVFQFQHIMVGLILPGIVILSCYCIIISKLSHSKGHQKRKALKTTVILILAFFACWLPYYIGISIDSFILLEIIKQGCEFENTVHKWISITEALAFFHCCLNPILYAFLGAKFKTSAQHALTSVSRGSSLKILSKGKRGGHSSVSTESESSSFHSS

[3] = system: HIV; details: cited from earlier work
Source text: It has been proposed that this chemotactic signalling might play a role during HIV infection in vivo, possibly by recruiting susceptible T-cells to sites of viral replication. In other retroviruses envelope/receptor interactions are known to be mitogenic and this may facilitate nuclear translocation and integration of the provirus. In HIV, however, it is not known whether the ability to productively engage the chemokine receptors in this way plays any direct role in acute viral entry and subsequent productive infection of the target cell. […] Since BSCIs, such as Peptide 3, ...

[4] = system: chemokine-receptor-induced ERK activity; details: MEK inhibitor; ref [25]; cited from earlier work
Source text: (§1) It has been proposed that this chemotactic signalling might play a role during HIV infection in vivo, possibly by recruiting susceptible T-cells to sites of viral replication. In other retroviruses envelope/receptor interactions are known to be mitogenic and this may facilitate nuclear translocation and integration of the provirus. In HIV, however, it is not known whether the ability to productively engage the chemokine receptors in this way plays any direct role in acute viral entry and subsequent productive infection of the target cell.

[5] = system: HIV (IIIb); assay: HIV (IIIb) infection of Jurkat T-cells, p24gag immunofluorescence; assay type: cell-based; details: SDF1α 100 ng/ml, approximately 48 h after infection, 12 fields of view from each of two wells
Method: HIV infection of Jurkat T-cells was also monitored by high sensitivity quantitative immunofluoresence detection of viral p24^gag expression. Jurkat cells were infected with HIV in the presence or absence of Peptide 3 (100 μM) or SDF1α (100 ng/ml) as described above. Approximately 48 h after infection, the cells were attached to glass slides using a cytospin and then fixed by immersion in ice-cold 70% ethanol for 90 seconds. Expression of p24^gag was determined using quantitative immunofluoresence as previously described, except that the primary antibody was post-fixed to the section using paraformaldehyde to increase the sensitivity of the technique (see Methods). Viral infectivity was expressed as the number of cells stained for p24^gag expressed as a proportion of the total number of cells (detected using Hoechst 33342 nuclear dye). […]
Jurkat cells following HIV infection were attached to 8-well chamber slides (Becton-Dickinson) by spinning the slides using a plate rotor in a Labofuge centrifuge (Heraeus) at 3,000 × g for 5 minutes. […] A threshold was then applied to each image which was the lowest threhold that detected <1% of the pixels of an image of uninfected cells stained under identical conditions. The number of objects exceeding this threshold in each field of view were counted. […]

[6] = system: HIV strain MN; assay: HIV (MN) infection of THP-1 cells, p24gag immunofluorescence; assay type: cell-based, HIV-1; details: HIV strain MN; Peptide 3 100 μM, MIP1α 100 ng/ml, SDF1α 100 ng/ml; 72 h; p24gag immunofluorescence
Method: However, it was possible to assess HIV infectivity of THP-1 cells using high sensitivity immunofluorescent detection of p24^gag. THP-1 cells were differentiated with hydrocortisone and PMA, then treated with TNFα, resulting in adherent monolayers on glass chamber slides. The THP-1 cells were then treated with either Peptide 3 (100 μM), MIP1α (100 ng/ml) or SDF1α (100 ng/ml) as for the Jurkat cells. THP-1 cells were infected with HIV strain MN at a concentration previously validated to produce easily detectable infection and grown for 72 h prior to fixation and staining for p24^gag. In contrast to the findings with HIV strain IIIb infection of Jurkat T cells, Peptide 3 inhibited infection of THP-1 cells by more than 80% (Fig 3c), very similar to the effect of MIP1α.
THP-1 cells were differentiated prior to infection with hydrocortisone and PMA in 8-well chamber slides. Sixteen hours prior to infection, TNFα was added (100 ng/ml). Twelve hours later, the medium was aspirated and replaced with fresh medium containing the test peptides or chemokines as appropriate. After a further four hours, virus from the frozen stocks was adeed to the cells, which were the processed for immunofluoresence between 28 h and 72 h after infection.
Jurkat cells following HIV infection were attached to 8-well chamber slides (Becton-Dickinson) by spinning the slides using a plate rotor in a Labofuge centrifuge (Heraeus) at 3,000 × g for 5 minutes. Attached Jurkat cells or THP-1 cells were then fixed by dipping the slides into ice-cold 70% ethanol for 90 seconds. Non-specific binding was blocked by incubation with 3% fatty acid-free BSA in TBS for 1 hour at room temprature. Cells were incubated with the mouse monoclonal anti-HIV-1 p24^gag antibody EH12E1 (ref 38;AIDS Reagent Program, NIBSC) at 10 μg/ml in 3% BSA in TBS at room temperature overnight. Unbound antibody was removed with 3 × 3 min washes in PBS, and bound antibody was then fixed to the slide by incubation with 3.8% phosphate buffered formalin pH7.2 for 10 mins at room temperature, followed by 3 further 3 min washes in PBS. Bound antibody was visualised using donkey anti-mouse IgG FITC conjugate (715-095-150; Jackson Immunoresearch) at 30 μg/ml in 3% BSA/TBS + 1 ng/ml Hoescht 33342 for 6 hours at room temperature. Twelve fields of view (100× magnification) were captured from each well of the chamber slide using an Olympus Provis AX electronic microscope connected to a Power Macintosh 8500, running OpenLab image analysis software (Improvision), under both FITC illumination conditions (NIBA filter block; λex = 470–490 nm, dichroic mirror = 505 nm, λem = 515–550 nm) and UV illumination conditions (Chroma 31000; λex = 340–380 nm, dichroic mirror = 400 nm, λem = 435–485 nm). Images were acquired with a Hamamatsu C4742-05 monochrome digital camera with 10-bit depth in a 1280-1024 pixel field connected to a DIG Snapper frame grabber. The exposure time, amplifier gain and offset values were controlled by the OpenLab software and were held constant throughout the experiment. A background (an image captured without a slide under the objective) was digitally subtracted from every image. A threshold was then applied to each image which was the lowest threhold that detected <1% of the pixels of an image of uninfected cells stained under identical conditions. The number of objects exceeding this threshold in each field of view were counted. […]

[7] = system: HIV (IIIb); assay: HIV (IIIb) replication in Jurkat T-cells, supernatant reverse transcriptase activity; assay type: cell-based; details: HIV-1 IIIb, Jurkat; SDF1α 100 ng/ml; two weeks; average of six separate experiments
Method: HIV infection of Jurkat T-cells using the laboratory-adapted T-tropic isolate IIIb was monitored using two different assays. Firstly, Jurkat T-cells in 96-well plates were pre-treated with either Peptide 3, vehicle (as a negative control) or SDF1α (as a positive control) for 4 hours, then exposed to HIV virus (10^6 TCID50) and pulsed at 2–3 day intervals with Peptide 3, SDF1α or medium alone as appropriate. After two weeks in culture, the extent of viral infection was assayed by measuring the reverse transcriptase activity in the supernatant, as a measure of viral replication in the culture In six separate experiments, Peptide 3 (100 μM) had no effect on virus replication following HIV exposure (Fig 3a), while SDF1α inhibited reverse transcriptase activity by an average of 75%. No effect was seen on cell viability under any of the treatment conditions.
HIV-1 stocks were prepared in the following manner. HIV-1 IIIb (provided by the MRC AIDS Reagent Programme) was used to infect Jurkat T cells and the progression of infection was monitored using the reverse transcriptase assay for 10–14 days. […] Stocks of HIV-1 MN strain were prepared in a similar manner, except that H9 T cells were used and the progression of infection was monitored by immunofluoresence (because of the low RT activity) in this strain. […]

[8] = system: Gi-mediated signalling through chemokine receptors; details: ref [24]; cited from earlier work
Source text: as §1

For `c1cc(CN2CCCNCCNCCCNCC2)ccc1CN1CCCNCCNCCCNCC1` [AMD3100, reference compound], the “Effect on SDF-1α induced chemotaxis” value [1] was “blocked” and the “Effect on binding of gp120:V3(IIIb) to Jurkat cells” value [2] was “blocked”.

In the case of `N#CC(=C(/N)Sc1ccccc1N)/C(C#N)=C(/N)Sc1ccccc1N` [Peptide U0126], the “Effect on HIV infection in vitro” value ([3]; MEK inhibitor, ref [25]) is listed as “block” and the “Effect on chemokine-receptor-induced ERK activity” value [4] is listed as “block”.

In the case of SDF1α [reference compound], the “Inhibition of viral infectivity (p24gag)” value [5] is reported as “more than 80%”, the “Effect on HIV infection of THP-1 cells (in words)” value [6] is reported as “no statistically significant effect” and the “Inhibition of reverse transcriptase activity” value [7] is reported as 75%.

For pertussis toxin, the “Effect on cellular infection with HIV in vitro” value ([3]; ref [24] (Guntermann), [25] (Montes; similar results)) is listed as “block cellular infection with HIV in vitro” and the “Effect on Gi-mediated signalling through chemokine receptors” value [8] is listed as “blocks”.

B1: MIP1α: chemokine used at 100 ng/ml (protein, UniProt P10147 24-92, looked up)
C-C motif chemokine 3: SLAADTPTACCFSYTSRQIPQNFIADYFETSSQCSKPGVIFLTKRSRQVCADPSEEWVQKYVSDLELSA
For B1, the “Effect on HIV infection of THP-1 cells (in words)” value [6] was “very similar”.
